18 compounds from patent US20240101576A1, “HETEROCYCLIC INHIBITORS OF EGFR AND/OR HER2, FOR USE IN THE TREATMENT OF CANCER” (Scorpion Therapeutics, Inc., priority 2020, published 2024) can be followed below.

Type in all cases: cell-based
The target in test [1] is T1, EGFR exon 20 ASV Ins V769_D770 (Ba/F3 cells) (Homo sapiens, UniProt P00533, INS769ASV).
T1 construct: expressed in transfected cells; host or cells: Ba/F3 (murine pro-B cells), retroviral transduction, puromycin selection, IL3-independent pool
T1 sequence (P00533 with tags, fused parts or gaps INS769ASV): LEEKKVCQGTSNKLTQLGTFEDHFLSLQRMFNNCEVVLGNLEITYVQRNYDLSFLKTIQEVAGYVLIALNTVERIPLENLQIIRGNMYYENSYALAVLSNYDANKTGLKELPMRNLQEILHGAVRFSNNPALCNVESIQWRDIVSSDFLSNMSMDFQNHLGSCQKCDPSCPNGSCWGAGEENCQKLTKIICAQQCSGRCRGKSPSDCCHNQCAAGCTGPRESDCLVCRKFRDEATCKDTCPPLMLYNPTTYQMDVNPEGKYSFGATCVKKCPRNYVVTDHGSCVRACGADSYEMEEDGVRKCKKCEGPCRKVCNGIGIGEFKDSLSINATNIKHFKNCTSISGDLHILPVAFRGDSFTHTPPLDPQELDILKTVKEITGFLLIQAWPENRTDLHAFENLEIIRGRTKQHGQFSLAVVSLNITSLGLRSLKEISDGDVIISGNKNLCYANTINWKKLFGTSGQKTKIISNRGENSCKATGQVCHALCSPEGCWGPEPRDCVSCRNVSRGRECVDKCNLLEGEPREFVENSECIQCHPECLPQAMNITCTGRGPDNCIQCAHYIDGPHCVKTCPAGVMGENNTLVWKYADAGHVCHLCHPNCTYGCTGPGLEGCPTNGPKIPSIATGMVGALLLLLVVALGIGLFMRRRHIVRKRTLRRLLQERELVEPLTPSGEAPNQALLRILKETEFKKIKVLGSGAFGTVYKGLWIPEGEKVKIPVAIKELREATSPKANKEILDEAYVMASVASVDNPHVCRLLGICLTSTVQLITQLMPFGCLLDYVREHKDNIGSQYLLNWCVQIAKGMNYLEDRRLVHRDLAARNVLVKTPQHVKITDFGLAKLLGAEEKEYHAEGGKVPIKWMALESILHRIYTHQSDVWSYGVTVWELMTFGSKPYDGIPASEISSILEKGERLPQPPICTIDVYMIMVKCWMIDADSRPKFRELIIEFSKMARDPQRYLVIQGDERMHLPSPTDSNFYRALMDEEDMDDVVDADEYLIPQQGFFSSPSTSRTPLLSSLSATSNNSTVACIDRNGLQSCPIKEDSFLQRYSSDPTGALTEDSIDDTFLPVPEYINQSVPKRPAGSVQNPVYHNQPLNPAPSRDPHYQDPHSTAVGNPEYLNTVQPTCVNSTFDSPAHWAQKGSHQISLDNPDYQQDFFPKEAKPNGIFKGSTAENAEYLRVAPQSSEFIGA
In words: Inhibitor activity on EGFR phosphorylation (pEGFR AlphaLISA, 2 h), Ba/F3 EGFR exon 20 ASV Ins. From the text:
Example B. Inhibitor Activity on EGFR phosphorylation (pEGFR)
EGFR mutant Ba/F3 cells were generated by transduction with retrovirus containing vectors expressing EGFR L858R, EGFR exon 19del, EGFR L858R/C797S, EGFR exon 20 NPG Ins D770_N771, EGFR exon 20 ASV Ins V769_D770, or EGFR exon 20 SVD Ins D770_N771 genes along with a puromycin selection marker. Transduced cells are selected with puromycin for 7 days and are then be transferred into culture media without Interleukin 3 (IL3). Surviving cells are confirmed to express EGFR by Western blot and maintained as a pool. CUTO14 cells were obtained from Dr. Robert C. Doebele at the University of Colorado. The IC50 date are included in Table 6 and Table 7.
1.1 Cells are harvested from flask into cell culture medium and the cell number counted.
1.2 Cells are diluted with culture medium to the desired density and 40 μL of cell suspension is added into each well of 384-well cell culture plate and the seeding density is 50K cells/well (Ba/F3) or 12.5K cells/well (CUTO14).
2 Compound Preparation and Treatment
2.1 Test compounds are dissolved to 10 mM in a DMSO stock solution. 45 μL of stock solution is transferred to a 384 polypropylene plate (pp-plate). Perform 3-fold, 10-point dilution via transferring 15 μL compound into 30 μL DMSO using a TECAN (EVO200) liquid handler.
2.2 Spin plates at room temperature at 1,000 RPM for 1 minute.
2.3 Transfer 5 nL of diluted compound from compound source plate into the cell plate.
2.4 After compound treatment for 2 hours, perform pEGFR detection by AlphaLISA for compound treatment plates as described in “Detection” section.
3 Detection by pEGFR AlphaLISA (Perkin-Elmer)
3.1 Plates are removed from incubators and equilibrated at room temperature for 10 minutes, and media was removed
3.2 10 μL of lysis buffer is added and plates shaken at 600 rpm for 1 hr.
3.3 Prepare acceptor mix just before use and dispense 5 μL of acceptor mix to all the wells. Shake 350 rpm for Ihr in the dark
3.4 Prepare donor mix under low light conditions prior to use. Dispense 5 μL of donor mix to all the wells. Mix well on the shaker, seal and wrap in aluminum foil and incubate 1.5 hrs at room temperature in the dark
3.5 Transfer 18.5 μL mixture to OptiPlate 384, and read using an Envision. The IC50 date were included in Table 6 and Table 7.

Test [2] has as its target T1, EGFR exon 20 ASV Ins V769_D770 (Ba/F3 cells). Briefly: Inhibitor activity on EGFR-dependent cell growth (CellTiter-Glo, 72 h), Ba/F3 EGFR exon 20 ASV Ins. Particulars: read-out: BaF3 ASV IC50. An outline of the steps:
(§1)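 IC50s derive from a sigmoidal dose–response fit of CellTiter-Glo signal. The signal was normalised between […]-treated cells and cell-free medium. Ba/F3 mutant-EGFR cells, seeded at 400–800/well depending on the line, had 72 h of exposure to a 10-point, 3-fold compound series.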
In general terms: Cellular ATP, detected with luciferase, serves as a proxy for viable cell number.

In test [3] the target is T2, EGFR exon 20 SVD Ins D770_N771 (Ba/F3 cells) (Homo sapiens, UniProt P00533, INS770SVD).
T2 construct: expressed in transfected cells; host or cells: Ba/F3 (murine pro-B cells), retroviral transduction, puromycin selection, IL3-independent pool
T2 sequence (P00533 with tags, fused parts or gaps INS770SVD): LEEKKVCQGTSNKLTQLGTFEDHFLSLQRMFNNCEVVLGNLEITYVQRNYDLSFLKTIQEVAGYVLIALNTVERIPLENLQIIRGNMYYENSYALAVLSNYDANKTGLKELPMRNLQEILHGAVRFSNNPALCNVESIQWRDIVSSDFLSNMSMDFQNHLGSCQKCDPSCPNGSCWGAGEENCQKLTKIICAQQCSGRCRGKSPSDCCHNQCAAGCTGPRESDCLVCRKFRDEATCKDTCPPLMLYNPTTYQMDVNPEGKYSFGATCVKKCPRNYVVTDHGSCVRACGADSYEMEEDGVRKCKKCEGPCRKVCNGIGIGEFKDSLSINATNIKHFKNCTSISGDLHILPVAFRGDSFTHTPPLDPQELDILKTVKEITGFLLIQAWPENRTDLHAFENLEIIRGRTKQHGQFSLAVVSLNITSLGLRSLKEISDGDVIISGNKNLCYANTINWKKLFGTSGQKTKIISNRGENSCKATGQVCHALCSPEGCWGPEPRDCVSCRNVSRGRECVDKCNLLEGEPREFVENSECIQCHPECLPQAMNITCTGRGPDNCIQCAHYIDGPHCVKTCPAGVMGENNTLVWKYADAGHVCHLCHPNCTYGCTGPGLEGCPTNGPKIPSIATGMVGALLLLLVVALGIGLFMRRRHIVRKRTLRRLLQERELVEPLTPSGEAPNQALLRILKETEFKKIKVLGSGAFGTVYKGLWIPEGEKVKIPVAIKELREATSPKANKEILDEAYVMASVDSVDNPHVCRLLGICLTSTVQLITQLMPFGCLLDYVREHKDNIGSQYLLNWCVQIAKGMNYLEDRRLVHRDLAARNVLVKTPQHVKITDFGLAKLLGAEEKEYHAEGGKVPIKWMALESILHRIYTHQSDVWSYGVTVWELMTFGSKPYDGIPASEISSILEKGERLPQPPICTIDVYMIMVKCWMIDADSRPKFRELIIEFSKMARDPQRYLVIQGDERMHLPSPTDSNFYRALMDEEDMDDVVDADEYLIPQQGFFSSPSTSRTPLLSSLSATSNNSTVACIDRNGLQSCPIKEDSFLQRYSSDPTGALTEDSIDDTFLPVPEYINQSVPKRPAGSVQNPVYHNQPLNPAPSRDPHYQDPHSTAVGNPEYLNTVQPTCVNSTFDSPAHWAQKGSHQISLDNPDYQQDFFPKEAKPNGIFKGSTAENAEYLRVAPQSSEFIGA
In words: Inhibitor activity on EGFR-dependent cell growth (CellTiter-Glo, 72 h), Ba/F3 EGFR exon 20 SVD Ins. The settings on record: read-out: BaF3 SVD IC50. The procedure, abridged:
as §1

Test [4] has as its target T3, EGFR exon 20 NPG Ins D770_N771 (Ba/F3 cells) (Homo sapiens, UniProt P00533, INS770NPG).
T3 construct: expressed in transfected cells; host or cells: Ba/F3 (murine pro-B cells), retroviral transduction, puromycin selection, IL3-independent pool
Briefly: Inhibitor activity on EGFR-dependent cell growth (CellTiter-Glo, 72 h), Ba/F3 EGFR exon 20 NPG Ins. The settings on record: read-out: BaF3 NPG IC50. An outline of the steps: as §1

In the next test the target is T4, EGFR WT (Ba/F3 cells) (Homo sapiens, UniProt P00533).
T4 construct: expressed in transfected cells; host or cells: Ba/F3 (murine pro-B cells), retroviral transduction, puromycin selection, maintained with EGF
In words: Inhibitor activity on EGFR-dependent cell growth (CellTiter-Glo, 72 h), Ba/F3 EGFR WT. The settings on record: read-out: BaF3 WT IC50. An outline of the steps:
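This growth assay used Ba/F3 cells that depend on wild-type EGFR and are kept in EGF without IL3. Compounds were made up as 10 mM DMSO stocks and diluted 3-fold over 10 points. 120 nL went onto 600 cells/well. After 72 hours, 40 μL CellTiter-Glo was added and luminescence read on EnVision after 30 min.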

In test [5] the target is T5, EGFR exon 20 FQEA Ins A763_V764 (Ba/F3 cells) (Homo sapiens, UniProt P00533, INS763FQEA).
T5 construct: expressed in transfected cells; host or cells: Ba/F3 (murine pro-B cells), retroviral transduction, puromycin selection, IL3-independent pool
T5 sequence (P00533 with tags, fused parts or gaps INS763FQEA): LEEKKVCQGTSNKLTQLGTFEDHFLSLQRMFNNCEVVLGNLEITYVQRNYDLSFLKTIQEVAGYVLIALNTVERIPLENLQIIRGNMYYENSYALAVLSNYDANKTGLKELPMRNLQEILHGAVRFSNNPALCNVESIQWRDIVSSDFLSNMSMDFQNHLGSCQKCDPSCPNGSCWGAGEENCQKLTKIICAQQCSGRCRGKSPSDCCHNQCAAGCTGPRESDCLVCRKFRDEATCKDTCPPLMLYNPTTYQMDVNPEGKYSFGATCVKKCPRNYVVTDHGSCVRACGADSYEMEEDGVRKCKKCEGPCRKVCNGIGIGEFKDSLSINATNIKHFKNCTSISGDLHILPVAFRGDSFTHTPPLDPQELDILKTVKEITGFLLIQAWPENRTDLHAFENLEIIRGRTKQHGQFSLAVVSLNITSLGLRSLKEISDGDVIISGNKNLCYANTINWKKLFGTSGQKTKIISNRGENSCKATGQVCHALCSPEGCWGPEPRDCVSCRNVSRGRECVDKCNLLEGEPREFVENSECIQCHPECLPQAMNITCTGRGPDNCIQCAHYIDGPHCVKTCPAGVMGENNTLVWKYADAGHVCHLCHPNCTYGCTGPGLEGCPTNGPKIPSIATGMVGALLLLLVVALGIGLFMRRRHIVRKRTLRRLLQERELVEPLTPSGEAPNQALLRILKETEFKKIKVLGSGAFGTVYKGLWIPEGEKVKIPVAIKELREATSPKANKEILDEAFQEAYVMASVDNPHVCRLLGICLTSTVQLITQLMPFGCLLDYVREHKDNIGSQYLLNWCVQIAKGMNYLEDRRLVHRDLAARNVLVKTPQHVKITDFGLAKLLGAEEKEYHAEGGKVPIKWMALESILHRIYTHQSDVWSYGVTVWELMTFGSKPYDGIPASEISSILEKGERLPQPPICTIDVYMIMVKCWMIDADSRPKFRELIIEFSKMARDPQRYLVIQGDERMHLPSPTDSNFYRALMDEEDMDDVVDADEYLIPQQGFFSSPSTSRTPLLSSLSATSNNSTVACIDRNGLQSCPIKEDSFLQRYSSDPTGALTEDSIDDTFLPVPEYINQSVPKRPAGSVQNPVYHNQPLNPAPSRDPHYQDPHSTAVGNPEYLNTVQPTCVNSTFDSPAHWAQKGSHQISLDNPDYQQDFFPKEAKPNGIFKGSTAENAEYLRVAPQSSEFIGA
In words: Inhibitor activity on EGFR-dependent cell growth (CellTiter-Glo, 72 h), Ba/F3 EGFR exon 20 FQEA Ins. Particulars: read-out: BaF3 FQEA IC50. The procedure, abridged: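 Compounds, serially diluted 3-fold over 10 points in DMSO and added at 120 nL per well, act on Ba/F3 EGFR-mutant cells for 72 h. Seeding is 800 (exon 19del, FQEA), 600 (L858R/C797S) or 400 (L858R) cells/well. CTG luminescence is fitted with a four-parameter logistic curve to give IC50.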

The mark [6] stands for this setting: EGFR phosphorylation, AlphaLISA, 2 hours, read-out: ASV IC50 (pEGFR).

Structures are written as SMILES.

T3 sequence (P00533 with tags, fused parts or gaps INS770NPG): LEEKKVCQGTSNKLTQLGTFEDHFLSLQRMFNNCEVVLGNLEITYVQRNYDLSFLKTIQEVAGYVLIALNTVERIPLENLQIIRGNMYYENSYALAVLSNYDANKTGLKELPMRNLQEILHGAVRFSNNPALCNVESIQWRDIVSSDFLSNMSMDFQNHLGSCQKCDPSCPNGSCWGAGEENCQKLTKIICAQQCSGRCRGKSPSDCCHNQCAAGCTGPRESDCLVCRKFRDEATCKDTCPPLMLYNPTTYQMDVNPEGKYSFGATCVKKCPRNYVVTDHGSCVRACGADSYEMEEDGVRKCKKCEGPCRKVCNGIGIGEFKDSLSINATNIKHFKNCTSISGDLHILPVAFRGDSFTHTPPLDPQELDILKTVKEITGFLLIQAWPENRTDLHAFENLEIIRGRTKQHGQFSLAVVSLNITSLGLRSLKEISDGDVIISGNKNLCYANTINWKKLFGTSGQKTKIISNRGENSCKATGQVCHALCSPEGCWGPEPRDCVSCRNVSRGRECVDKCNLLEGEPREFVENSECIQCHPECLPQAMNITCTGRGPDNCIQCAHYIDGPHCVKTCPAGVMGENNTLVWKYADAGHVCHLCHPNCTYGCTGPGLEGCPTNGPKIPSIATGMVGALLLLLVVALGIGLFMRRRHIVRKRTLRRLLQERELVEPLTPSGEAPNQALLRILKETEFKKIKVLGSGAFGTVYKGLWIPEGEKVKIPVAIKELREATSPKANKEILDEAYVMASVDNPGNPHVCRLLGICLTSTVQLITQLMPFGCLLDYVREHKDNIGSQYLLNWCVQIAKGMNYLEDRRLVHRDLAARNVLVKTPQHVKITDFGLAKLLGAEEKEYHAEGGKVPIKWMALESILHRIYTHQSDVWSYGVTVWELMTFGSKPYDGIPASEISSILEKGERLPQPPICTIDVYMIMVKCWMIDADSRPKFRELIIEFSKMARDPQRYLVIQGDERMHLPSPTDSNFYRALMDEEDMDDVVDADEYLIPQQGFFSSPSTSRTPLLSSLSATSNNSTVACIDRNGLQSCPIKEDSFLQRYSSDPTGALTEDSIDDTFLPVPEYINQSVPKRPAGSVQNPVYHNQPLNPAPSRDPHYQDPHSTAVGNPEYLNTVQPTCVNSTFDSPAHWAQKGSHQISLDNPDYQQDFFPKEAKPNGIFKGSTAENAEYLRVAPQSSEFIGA

Broadly, the IC50 is the concentration needed to halve the response being measured. For `COc1c(F)cccc1Nc1c(-c2nc(N)ncc2F)[nH]c2c1C(=O)NCC2` [Compound 688, 2-(2-amino-5-fluoropyrimidin-4-yl)-3-[(3-fluoro-2-methoxyphenyl)amino]-1H,5H,6H,7H-pyrrolo[3,2-c]pyridin-4-one], the IC50 (in test [1] (setting [6]); in test [2]; in test [3]; in test [4]; on EGFR WT (Ba/F3 cells); in test [5]) was over 1000 nM throughout.
Regarding `Cc1c(Cl)cccc1Nc1c(-c2ccnc(N)n2)[nH]c2c1C(=O)NCC2` [compound 725, 2-(2-aminopyrimidin-4-yl)-3-[(3-chloro-2-methylphenyl)amino]-1H,5H,6H,7H-pyrrolo[3,2-c]pyridin-4-one; trifluoroacetic acid], the IC50 in test [1] (setting [6]) is under 100 nM; in test [4] it was under 100 nM; at EGFR WT (Ba/F3 cells), 100 to 1000 nM; in test [5] it was 100 to 1000 nM.
On to `Nc1nccc(-c2[nH]c3c(c2Nc2cccc(Cl)c2F)C(=O)NCC3)n1` [Compound 706, 2-(2-aminopyrimidin-4-yl)-3-[(3-chloro-2-fluorophenyl)amino]-1H,5H,6H,7H-pyrrolo[3,2-c]pyridin-4-one], for which the IC50 in test [1] is under 100 nM; in test [4] it was under 100 nM; at EGFR WT (Ba/F3 cells), 100 to 1000 nM; in test [5], 100 to 1000 nM.
On to `CCc1c(Cl)cccc1Nc1c(-c2ccnc(N)n2)[nH]c2c1C(=O)NCC2` [compound 297], for which the IC50 was under 100 nM in test [1] (setting [6]), 100 to 1000 nM in test [4], over 1000 nM at EGFR WT (Ba/F3 cells) and 100 to 1000 nM in test [5].
Consider `COc1c(Nc2c(-c3ccnc(N)n3)[nH]c3c2C(=O)NCC3)cccc1C(F)(F)F` [Compound 698, 2-(2-aminopyrimidin-4-yl)-3-[[2-methoxy-3-(trifluoromethyl)phenyl]amino]-1H,5H,6H,7H-pyrrolo[3,2-c]pyridin-4-one], for which the IC50 was 100 to 1000 nM in test [1] (setting [6]), 100 to 1000 nM in test [4], over 1000 nM on EGFR WT (Ba/F3 cells) and 100 to 1000 nM in test [5].
Turning to `COc1c(F)cc(F)cc1Nc1c(-c2ccnc(N)n2)[nH]c2c1C(=O)NCC2` [compound 304], the IC50 is under 100 nM in test [1] (setting [6]); 100 to 1000 nM in test [2]; 100 to 1000 nM in test [3]; over 1000 nM on EGFR WT (Ba/F3 cells); 100 to 1000 nM in test [5].
Regarding `CC#Cc1cccc(Nc2c(-c3ccnc(N)n3)[nH]c3c2C(=O)NCC3)c1OC` [Compound 704, 2-(2-aminopyrimidin-4-yl)-3-[[2-methoxy-3-(prop-1-yn-1-yl)phenyl]amino]-1H,5H,6H,7H-pyrrolo[3,2-c]pyridin-4-one], the IC50 (in test [1] (setting [6]); in test [2]; in test [3]; on EGFR WT (Ba/F3 cells); in test [5]) was over 1000 nM each time.
For `COc1cc(Cl)cc(Nc2c(-c3ccnc(N)n3)[nH]c3c2C(=O)NCC3)c1` [compound 302], the IC50 (in test [1] (setting [6]); in test [2]; in test [3]; at EGFR WT (Ba/F3 cells); in test [5]) was over 1000 nM in each case.
For the compound `Cc1cc(F)ccc1Nc1c(-c2ccnc(N)n2)[nH]c2c1C(=O)NCC2` [compound 197], the half-maximal inhibitory concentration (IC50) (in test [1] (setting [6]); in test [2]; in test [3]; at EGFR WT (Ba/F3 cells); in test [5]) was over 1000 nM in each case.
With `Nc1nccc(-c2[nH]c3c(c2Nc2cc(F)cc(F)c2)C(=O)NCC3)n1` [compound 204], the IC50 (in test [1] (setting [6]); in test [2]; in test [3]; on EGFR WT (Ba/F3 cells); in test [5]) was 100 to 1000 nM each time.
Take `Cc1c(C#N)cccc1Nc1c(-c2ccnc(N)n2)[nH]c2c1C(=O)NCC2` [compound 201]: the IC50 (in test [1] (setting [6]); in test [2]; in test [3]; on EGFR WT (Ba/F3 cells); in test [5]) was over 1000 nM each time.
As to `COc1c(F)cccc1Nc1c(-c2ccnc(N)c2)[nH]c2c1C(=O)NCC2` [compound 242], the IC50 in test [1] (setting [6]) was 100 to 1000 nM; in test [2], over 1000 nM; in test [3] it was over 1000 nM; on EGFR WT (Ba/F3 cells), over 1000 nM; in test [5], over 1000 nM.
As for `COc1c(Cl)cccc1Nc1c(-c2ccnc(N)n2)[nH]c2c1C(=O)N[C@@H](C)C2` [187a], the IC50 in test [1] (setting [6]) is under 100 nM; in test [2], 100 to 1000 nM; in test [3] it was 100 to 1000 nM; on EGFR WT (Ba/F3 cells), over 1000 nM; in test [5] it was 100 to 1000 nM.
In the case of `Cc1ccc(F)cc1Nc1c(-c2ccnc(N)n2)[nH]c2c1C(=O)NCC2` [compound 196], the IC50 in test [1] (setting [6]) was 100 to 1000 nM; in test [2], over 1000 nM; in test [3] it was over 1000 nM; on EGFR WT (Ba/F3 cells) it was over 1000 nM; in test [5] it was 100 to 1000 nM.
Consider `Cc1cccc(F)c1Nc1c(-c2ccnc(N)n2)[nH]c2c1C(=O)NCC2` [compound 198], for which the IC50 (in test [1] (setting [6]); in test [2]; in test [3]; on EGFR WT (Ba/F3 cells); in test [5]) was over 1000 nM each time.
With `C#Cc1cccc(Nc2c(-c3ccnc(N)n3)[nH]c3c2C(=O)NCC3)c1OC` [Compound 703, 2-(2-aminopyrimidin-4-yl)-3-[(3-ethynyl-2-methoxyphenyl)amino]-1H,5H,6H,7H-pyrrolo[3,2-c]pyridin-4-one], the IC50 in test [1] (setting [6]) was 100 to 1000 nM; in test [2] it was over 1000 nM; in test [3], over 1000 nM; on EGFR WT (Ba/F3 cells) it was over 1000 nM; in test [5], over 1000 nM.
Consider `CCOc1c(F)cccc1Nc1c(-c2ccnc(N)n2)[nH]c2c1C(=O)NCC2` [Compound 699, 2-(2-aminopyrimidin-4-yl)-3-[(2-ethoxy-3-fluorophenyl)amino]-1H,5H,6H,7H-pyrrolo[3,2-c]pyridin-4-one; trifluoroacetic acid], for which the half-inhibitory concentration (IC50) in test [1] (setting [6]) was 100 to 1000 nM; in test [2], over 1000 nM; in test [3], over 1000 nM; on EGFR WT (Ba/F3 cells), over 1000 nM; in test [5], over 1000 nM.
For the compound `CSc1c(Cl)cccc1Nc1c(-c2ccnc(N)n2)[nH]c2c1C(=O)NCC2` [Compound 715, 2-(2-aminopyrimidin-4-yl)-3-[[3-chloro-2-(methylsulfanyl)phenyl]amino]-1H,5H,6H,7H-pyrrolo[3,2-c]pyridin-4-one], the IC50 in test [1] (setting [6]) is under 100 nM; in test [2], 100 to 1000 nM; in test [3], 100 to 1000 nM; on EGFR WT (Ba/F3 cells), over 1000 nM; in test [5] it was 100 to 1000 nM.
